These results are taken from US20030219866A1, “Stem cell-like cells” (priority 2000, published 2003).

Format in all cases: cell-based
Assay [1] relates to human Mesenchymal Stem Cells. In words: OCT4 expression after TSA treatment in hMSC (RT-PCR). Further details: key to OCT4 expression: +/− expression detectable; (+) clear expression; (++ strong expression). The settings on record: for OCT4 expression: hMSC, RT-PCR. As for the experimental part:
(§1) (a) RNA isolation and eDNA synthesis. At the time of harvest, medium was aspirated and cells were lyzed using Ultraspec™ (Biotecx) or Trizol® (Gibco BRL). RNA was isolated according to the instructions of the suppliers. RNA concentration was determined by measuring OD260 and equal amounts of RNA of the indicated cell lines were subjected to conversion into cDNA. RNA was reversed transcribed using random primers and 15 units M-MuLV (Promega) in a reaction mixture containing 4 μl 25 mM MgCl2, 2 μl of each of the four dNTPs at 10 mM and 0.5 μl RNasin (Promega) in a total volume of 20 μl. RNA and 0.5 μg random hexamers were pre-incubated for 10 minutes at 55-60°. Mixtures were incubated at 37° C. for 1 hour.
(§2) (b) PCR reactions. PCR was were performed using 2 μl cDNA, 2.5 μl 10× SuperTaq buffer (without magnesium), 0.25 μl forward primer, 0.25 μl reverse primer, 0.50 μl 10 mM dNTPs, 1.25 Units of SuperTaq polymerase. In the case of β2-microglobulin 1.5 mM MgCl2 was added to the reaction mixture. For mouse UTF1 PCR, normal Taq polymerase (Roche) was used with a buffer containing MgCl2. The conditions for the PCR reaction were: 5 minutes 94° C.; 28 cycles of 30 seconds 94° C., 30 seconds 60° C. and 30 seconds 72° C.; 10 minutes 72° C., using a PTC-200, Peltier Thermal cycler. PCR-fragments were run on a 2% agarose gel and visualized by ethidium bromide staining.
(§3) HDAC activity is inhibited by Trichostatin A (TSA). Human mesenchymal stem cells and mouse and human neuronal progenitor cells were treated by TSA at concentration of 10 and 50 ng/ml. After 24 and 48 hours, OCT4 expression was analyzed by RT-PCR.

In assay [2] the test system is human Neural Progenitor Cells. In words: OCT4 expression after TSA treatment in hNPC (RT-PCR). Further details: key to OCT4 expression: +/− expression detectable; (+) clear expression; (++ strong expression). To be noted: for OCT4 expression: hNPC, RT-PCR. As for the experimental part: as §1, §2, §3
The next assay has as its system TSA treated cells. In words: UTF1 expression and TGF-beta/activin/BMP responsiveness of TSA treated cells.
Assay [3] deals with mouse Neural Progenitor Cells. Description: OCT4 expression after TSA treatment in mNPC (RT-PCR). To be noted: for OCT4 expression: mNPC (eGFP/bcl2), RT-PCR. Further details: key to OCT4 expression: +/− expression detectable; (+) clear expression; (++ strong expression). Here is the method:
as §1, §2, §3

Structures are written as SMILES.

Turning to `CC(/C=C/C(=O)NO)=C\[C@@H](C)C(=O)c1ccc(N(C)C)cc1` [TSA, Trichostatin A], the OCT4 expression entry in assay [1] (TSA 10 ng/ml, 24 hours) is recorded as “+”; in assay [1] (TSA 10 ng/ml, 48 hours), “++”; in assay [1] (TSA 50 ng/ml, 24 hours) it was “+”; in assay [1] (TSA 50 ng/ml, 48 hours), “++”; in assay [2] (TSA 10 ng/ml, 24 hours) it was “+”; in assay [2] (TSA 10 ng/ml, 48 hours), “++”. The OCT4 expression result in assay [2] (TSA 50 ng/ml, 24 hours) is “+”; in assay [3] (TSA 10 ng/ml, 24 hours), “+”; in assay [3] (TSA 10 ng/ml, 48 hours), “++”; in assay [3] (TSA 50 ng/ml, 24 hours), “+”. Moreover, the SSEA4 expression result is “increased” in assay [1] (human MSC, TSA treated, in parallel with upregulation of OCT4) and “increased” in assay [2] (human Neural Progenitor Cells, TSA treated, in parallel with upregulation of OCT4). Further, the “expression of OCT4” value was “enhances” in assay [1] (human MSC, TSA treatment for 24 to 48 hours); “enhances” in assay [2] (human Neural Progenitor Cells, TSA treatment for 24 to 48 hours); “enhances” in assay [3] (mouse neural progenitor cells, TSA treatment for 24 to 48 hours). Moreover, the “TGF-beta, activin and BMP responsiveness” value in the assay with TSA treated cells is listed as “reduction”. For the same molecule, in the assay with TSA treated cells, the “expression of UTF1” value was “increased”.
